Test results from patent US9087996B2, “Fluorine-containing aromatic compound and production method thereof” (Asahi Glass Company, Limited, priority 2012, dated 2015).

Experiments:
[1] = format: physicochemical
Protocol: In order to investigate applicability of the compound (o) obtained in Example 7-c to a wet process, a solubility test of the compound in various solvents was conducted. In addition, a solubility test of pentacene was also conducted as reference.
Specifically, 20 mg of a sample was weighed and it was visually judged whether it dissolves in 10 g of a solvent at room temperature (0.2% by weight).

melting point | SMILES | Solubility in Chloroform [1] | Solubility in Cyclohexane [1] | Solubility in Hexane [1] | Solubility in THF [1] | Solubility in Toluene [1] | Solubility in o-Dichlorobenzene [1]
123.5 to 124.1 °C | COc1ccc(C#Cc2ccc3c(C(F)(F)F)c4ccccc4c(C(F)(F)F)c3c2)cc1 [Compound (a1), 2-[(4-methoxyphenyl)ethynyl]-9,10-bis(trifluoromethyl)anthracene] |  |  |  |  |  | 
215 to 215.5 °C | FC(F)(F)c1c2ccc(C#Cc3ccccc3)cc2c(C(F)(F)F)c2ccc(C#Cc3ccccc3)cc12 [Compound (b1), 2,6-bis(phenylethynyl)-9,10-bis(trifluoromethyl)anthracene] |  |  |  |  |  | 
 | FC(F)(F)c1c2cc3ccccc3cc2c(C(F)(F)F)c2cc3ccccc3cc12 [Compound (o)] | Yes | Yes | Yes | Yes | Yes | Yes
 | c1ccc2cc3cc4cc5ccccc5cc4cc3cc2c1 [Pentacene, pentacene, reference compound] | No | No | No | No | No | No
